Experimental data: article PMC8201173, “Inhibition of Carbonic Anhydrase IX Promotes Apoptosis through Intracellular pH Level Alterations in Cervical Cancer Cells” (International Journal of Molecular Sciences, 2021)

What was measured:
[1] = target: hCAIX; set-up: method as in PMID 25913118, PMID 26803577; settings: stopped-flow CO2 hydration assay; cited from earlier work
[2] = test system: MDA-MB-231; assay: WST-1 cytotoxicity assay, MDA-MB-231; format: cell-based; settings: Homo sapiens
Description: (§1) We used cancer and normal cell lines purchased from ATCC (American Type Culture Collection) and ECACC (European Collection of Authenticated Cell Cultures) and stored in liquid nitrogen.
(§2) The cells were planted in 96 well plates (10^4 cells per well). […] WST-1 reactive of 10 µL was added in all wells. Following 4 h incubation, the measurements were carried out in a plate reader (Spectramax M5, BioTek, VT, USA) at wavelengths of 450 and 630 nm.

[3] = test system: HeLa cells; assay: Western blot of apoptotic proteins and CAIX; format: cell-based; settings: 24 h
Description: The cells were seeded on 6 cm^2 cell culture dishes and treated with the compound E at doses of 10–25–50 μM, for 24 h. The cells were then washed by cold PBS, which was followed by lysis with RIPA lysis tampon (10 mM Tris-HC1 pH:8.1 mM EDTA, 1 mM EGTA, 140 mM NaCl, 1% TritonX-100, 0.1 SDS, 0.1% Sodium deoxycholate), 1X phosphates, and protease inhibitor (Santa Cruz, Heidelberg, Germany). Acquired supernatant was centrifuged at 12,000× g for 10 min and transferred to new tubes. Protein concentration was detected using the protein assay kit BCA (Thermo Fisher Scientific, MA, USA). Following protein (50 µg) standing in 10% SDS-PAGE gel at 50 V for 30 min and 80 V for 3 h, the proteins were blotted to PVDF membrane at 70 V for 5 min (Bio-Rad Turbo Transfer System). After blocking in 1X TBST (12.1 gr Tris, pH 7.5, 70 gr NaCl, %0.1 Tween-20) containing 5% dry milk or 5% BSA, the primer monoclonal antibodies shown in Table 3 were administrated to the membrane overnight, which was followed by washing with 1 X TBS-T and incubation period with secondary antibodies HRP rabbit or mouse (1/10.000) for 60 min. The membrane was washed with 1 X TBS-T again. For band imaging, ECL substrate (EMD Millipore Corp., MA, USA) was used in the imaging system (LI-COR Odyssey Fc, NE, USA).

[4] = test system: HeLa cells; assay: Cell cycle analysis (PI staining, flow cytometry); format: cell-based; settings: for Cells in G2/M phase / Cells in S phase / Cells in G0/G1 phase: 72 h; for Cells in G2/M phase: WT 20.4%; for Cells in S phase: WT 23.2%; for Cells in G0/G1 phase: WT 56.6%
Description: Cell cycle analysis was performed using BD Cycletest ™ Plus DNA Reagent kit (BD Biosciences, NJ, USA). […] The cells were raised with trypsin and centrifuged at 1500 rpm for 5 min. When a suspension was created by 1X binding buffer, 250 µL solution A was added and incubated in a light-free environment for 10 min, 200 µL solution B was added and incubated in light-free environment for 10 min, and 200 µL solution C was added and incubated at +4 °C in a protected-light environment for 10 min. All these analyses were performed by flow cytometry (BD Via, NJ, USA).

[5] = test system: HeLa cells; assay: γ-H2AX immunofluorescence staining (DNA damage); format: cell-based; settings: 10–25–50 µM, 24 h
Description: HeLa cells (1 × 10^4/^mL) were seeded in 12-well cell culture plates, and after 24 h incubation, they were treated with the compound E at doses of 10–25–50 µM and incubated for 24 h. The cells were washed with PBS and fixed with 100% methanol at −20 °C overnight, which was followed by PBS washing three times for 10 min. The cells were treated with % 0.2 Triton X-100 on a shaker at room temperature for 5 min. It was washed with PBS, and 1% BSA-containing PBS was added and incubated with primary mouse monoclonal anti-γ-H2AX antibody (Cell Signalling Technology, MA, USA) at 37 °C for 1 h. The cells were washed with PBS three times for 5 min. Secondary goat anti-mouse Alexa-488-conjugated IgG (Invitrogen, CA, USA) was administrated and incubated at 37 °C for 20 min, which was followed by PBS washing three times for 4–5 min. One millilitre of 70% EtOH was added, and at +4 °C it was incubated for 5 min. One millilitre of 100% EtOH was added and, on a shaker, incubated at room temperature for 1–2 min. The nucleus was stained with DAPI. The images were recorded by Olympus Inverted fluorescence microscope (Olympus CKX 51, DP73, USA).

[6] = test system: HeLa cells; assay: BrdU ELISA proliferation assay; format: cell-based; settings: 2.5 to 200 μM, 72 h
Description: The effects of compound E on the proliferation of HeLa cells were investigated by a commercial proliferation kit BrDU (BioVision, CA, USA) according to the protocols of the manufacturer. Twenty-four hours later, the cells were planted in 96 well plates (10^4 cell/mL), the medium was replaced, and the substance was administrated at a range from 2.5 to 200 μM for 72 h. Subsequently, the media were […], after which 100 µL 1X of BrdU reactive was added; then, they were placed in an incubator that contained % 5 CO2, 95% fresh air, at 37 °C, for 4 h. The medium was then removed, and 100 μL of fixative/denaturation solution was added and incubated for 30 min. A total of 100 µL 1X of the antibody solution BrdU was added, following 1-h incubation, the solution washed by 300 µL 1X of the washing solution two times. A volume of 100 μL 1X of anti-mouse HRP-linked antibody was added and incubated at room temperature for 1 h. Then, the cells were washed with 300 µL 1X of washing solution. Final incubation was performed by 100 μL of TMB substrate solution for 5 min, after which the stop solution was added; consequently, reading at a wavelength of 450 nm was performed.

[7] = test system: HeLa cells; assay: WST-1 cytotoxicity assay, HeLa; format: cell-based; settings: Homo sapiens
Description: as §1, §2

melting point: 189 to 191 °C
SMILES: NS(=O)(=O)c1ccc(CCNCc2cc(Br)ccc2O)cc1 [Compound E, 4-(2-((5-bromo-2-hydroxybenzyl)amino)ethyl) benzenesulphonamide]
Ki [1]: 0.0043 µM
IC50 ([2]; MDA-MB-231, 24 h): 1948 ± 4.65 µM
IC50 ([2]; MDA-MB-231, 48 h): 205 ± 3.55 µM
IC50 ([2]; MDA-MB-231, 72 h): 62.9 ± 10.3 µM
CAIX protein level ([3]; 25 µM): effective for inhibiton of CAIX protein
Cleaved PARP protein level ([3]; 10 and 25 µM, vs WT): increased PARP protein level
Cleaved caspase 3, 8, and 9 protein levels ([3]; 10–25–50 μM, vs WT): increased
Pro-caspase 3 protein level ([3]; 10–25–50 μM, vs WT): decreased
Cell cycle arrest [4]: arrested cell cycle of HeLa cells at the G0/G1 phase
Cells in G2/M phase ([4]; 10 µM): 22.3%
Cells in S phase ([4]; 10 µM): 19.3%
Cells in G0/G1 phase ([4]; 10 µM): 56.8%
Cells in G2/M phase ([4]; 25 µM): 17.9%
Cells in S phase ([4]; 25 µM): 14.6%
Cells in G0/G1 phase ([4]; 25 µM): 66.5%
Cells in G2/M phase ([4]; 50 µM): 19.3%
Cells in S phase ([4]; 50 µM): 10.8%
Cells in G0/G1 phase ([4]; 50 µM): 68.8%
DNA damage (γ-H2AX level) [5]: induced DNA damage in a dose-dependent manner
Proliferation of HeLa cells (BrdU ELISA) [6]: reduce the proliferation of HeLa cells in a dose-dependent manner
IC50 ([7]; 24 h): 46.4 ± 4.3 µM
IC50 ([7]; 48 h): 86.8 ± 2.3 µM
IC50 ([7]; 72 h): 20.1 ± 4.2 µM
